This is an account of results in patent publication US20260256741A1, “ANTICANCER MALEIMIDE DERIVATIVES FOR USE WITH IMMUNE CHECKPOINT BLOCKADE” (BROWN UNIVERSITY, priority 2022, published 2026).

Structures are written as SMILES.

Test [1] deals with TALL-104 cells. Briefly: Microarray gene expression analysis, TALL-104. It is filed as cell-based, human. As to the method:
A total of 0.5×10^6 tumor cells (HCT-116, HT-29, KM12C) were plated in a 6-well plate and allowed to adhere overnight before 24-hour treatment as indicated. 1×10^6 immune cells (NK92, TALL-104) were plated and treated with elraglusib as indicated for 24 hours. RNA was isolated from cell pellets in batches of 6 using an RNeasy Plus Mini Kit (Cat #74134, Qiagen, Hilden, Germany). Acceptable RNA concentration and quality were verified with Nanodrop and Bioanalyzer measurements. GeneChip™ Human Transcriptome Array 2.0 assays were conducted according to manufacturer instructions in two batches using randomized samples to limit batch effects (Cat #902162, Applied Biosystems, Waltham, MA, USA). Applied Biosystems Transcriptomic Analysis Console (TAC) software (RRID: SCR_016519) was used to calculate fold changes in gene expression relative to the untreated control cells. Values were considered statistically significant for p values <0.05.

Test [2] concerns HCT-116 CRC cells. Put plainly: Western blot analysis of HCT-116 CRC cells. In kind it is cell-based, human. As to the method: Recombinant Human TNF-α (Cat #300-01A, PeproTech, Rocky Hill, NJ, USA) and Recombinant Human IFN-γ (Cat #300-02, Peprotech, Rocky Hill, NJ, USA) were purchased for use in western blot analysis while rhTRAIL was generated in-house. Kim et al., J Biol Chem., 279(38):40044-52 (2004).
Cells were plated in a 6-well plate and incubated overnight before the spent media was replaced with drugged media. Drug treatment lasted for indicated durations. Protein was extracted using radioimmunoprecipitation (RIPA) assay buffer (Cat #R0278, Sigma-Aldrich, St. Louis, MO) containing cOmplete™, Mini, EDTA-free Protease Inhibitor Cocktail (Cat #4693159001, Roche, Basel, Switzerland) from sub-confluent cells. Denaturing sample buffer was added, samples were boiled at 95 degrees for 10 minutes, and an equal amount of protein lysate was electrophoresed through NuPAGE™ 4 to 12%, Bis-Tris, 1.5 mm, Mini Protein Gels (Invitrogen, Waltham, MA) then transferred to PVDF membranes. The PVDF membrane was blocked with 5% non-fat milk (Sigma-Aldrich, St. Louis, MO) in 1×TTBS. Primary antibodies were incubated with the transferred PVDF membrane in blocking buffer at 4° C. overnight. Secondary antibodies used included Goat anti-Rabbit IgG (H+L) Secondary Antibody, HRP (Cat #31460, Invitrogen, Waltham, MA), and Goat anti-Mouse IgG (H+L) Secondary Antibody, HRP (Cat #31430, Invitrogen, Waltham, MA). Signal was detected using Pierce™ ECL Western Blotting Substrate (Cat #32106, Thermo Scientific, Waltham, MA, USA) and a Syngene Imaging System (RRID: SCR_015770).
A general note: Immunoblotting shows a protein as a band on a membrane.

The test system of test [3] is CT-26 MSS colon carcinoma. Briefly: Syngeneic murine colon carcinoma BALB/c model using MSS cell line CT-26, survival. In kind it is in vivo, BALB/c mice. To be noted: IP twice a week: elraglusib 70 mg/kg, anti-PD-1 10 mg/kg, anti-PD-L1 10 mg/kg. On the procedure:
The experimental in vivo protocol (Protocol #19-01-003) was approved by the Institutional Animal Care and Use Committee of Brown University (Providence, RI, USA). Six to 7 weeks-old female BALB/c mice (RRID: IMSR_JAX:000651) were purchased from Taconic. 50,000 cells were suspended in 50 μL ice-cold PBS and 50 μL Matrigel (Catalog # 354234, Corning, New York, USA), and 100 uL was injected subcutaneously into the rear flanks. Once tumor volume reached at least 100 mm^3, mice were randomly assigned to one of seven groups (3 mice/group): Control (isotype), elraglusib, elraglusib+Isotype, anti-PD-1, anti-PD-L1, elraglusib+anti-PD-1, and elraglusib+anti-PD-L1. All treatments were delivered by IP injection on the following dosing schedule: Isotype (70 mg/kg, twice a week), elraglusib (70 mg/kg, twice a week), anti-PD-1 (10 mg/kg, twice a week), anti-PD-L1 (10 mg/kg, twice a week). The treatment continued until mice developed signs of discomfort from excessive tumor growth. Mice were weighed once a week to monitor signs of drug toxicity. The length (L) and width (W) of the masses were measured three times per week with a digital caliper, and the tumor volume was calculated by applying the formula: 0.5LW2. Collection of whole blood and serum was performed by cardiac puncture and sent to Antech GLP for blood cell count and chemistry tests, or in-house cytokine profiling. […]

The mark [4] stands for this setting: especially at later timepoints (48, 72 hr).

On to `Cn1cc(C2=C(c3coc4ccc(F)cc34)C(=O)NC2=O)c2cc3c(cc21)OCO3` [elraglusib, 3-(5-fluorobenzofuran-3-yl)-4-(5-methyl-5H-[1,3]dioxolo[4,5-f]indol-7-yl)-1H-pyrrole-2,5-dione], for which, in test [1] (24 hours vs DMSO), the “CCL3 gene expression fold change” value is listed as 1.52 FC, the “KIF7 gene expression fold change” value was 1.56 FC and the “PTPN3 gene expression fold change” value is on record as −1.56 FC. Besides, the “differentially expressed genes post-treatment” value in test [1] (IC-50 concentration (1 μM), 24 hours, FC cutoff >1.5, <−1.5, p<0.05) was 64. Moreover, in test [2] (as the 0-72 hour time-course progressed), the “NF-κB p65 expression” value is recorded as “decreased expression”. Moreover, in test [2] (as the treatment duration increased (0-72 hours)), the PD-L1 expression result is “increases in PD-L1 expression”. Further, in test [2] (by the 24-hour timepoint), the Mcl-1 protein expression result is “marked decreases in protein expression”. In addition, in test [2] (setting [4]), the Bcl-2 protein expression entry is recorded as “decreases in protein expression” and the Survivin protein expression entry is recorded as “decreases in protein expression”. Besides, the “cleaved PARP (cPARP)” value in test [2] (low dose as in co-culture assays, until the 48-hour timepoint of 72-hour timecourse) is reported as “little to no cleaved PARP”. The “survival (Kaplan-Meier) as compared to the control” value in test [3] is “statistically significant improved survival”.
